Measurements published in US11999746B2, “Compounds” (GlaxoSmithKline Intellectual Property Development Limited, priority 2014, dated 2024).
Structures can show the parent of a compound that is named as a salt.

Tests used:
[1] = molecular target: T1, recombinant human Lp-PLA2 (Homo sapiens, UniProt Q13093); assay: (1a) PED6 assay, recombinant human Lp-PLA2 (rhLp-PLA2); type: biochemical; conditions: Examples 1-167 and 413-430 were tested here, one experiment or average of multiple experiments, read-out: rhLp-PLA2 (pIC50) (converted)
T1 sequence (Q13093 22-441): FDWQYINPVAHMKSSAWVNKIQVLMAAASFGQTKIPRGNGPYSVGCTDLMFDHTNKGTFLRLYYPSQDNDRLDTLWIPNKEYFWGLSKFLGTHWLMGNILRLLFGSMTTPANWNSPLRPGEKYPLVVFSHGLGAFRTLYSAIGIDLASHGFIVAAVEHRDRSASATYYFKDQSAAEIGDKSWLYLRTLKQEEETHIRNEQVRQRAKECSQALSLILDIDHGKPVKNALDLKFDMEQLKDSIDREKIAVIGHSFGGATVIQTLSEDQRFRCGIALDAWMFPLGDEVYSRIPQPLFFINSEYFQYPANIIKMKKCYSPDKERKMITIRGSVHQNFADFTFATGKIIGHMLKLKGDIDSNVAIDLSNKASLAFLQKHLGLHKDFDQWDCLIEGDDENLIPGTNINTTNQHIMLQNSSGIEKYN
Excerpt: (1) Recombinant Human Lp-PLA2 Assays (rhLp-PLA2)
N-((6-(2,4-Dinitrophenyl)amino)-hexanoyl)-2-(4,4-difluoro-5,7-dimethyl-4-bora-3a,4a-diaza-s-indacene-3-pentanoyl)-1-hexadecanoyl-sn-glycero-3-phosphoethanolamine, triethylammonium salt (PED6) is a commercially available fluorescently-labeled phospholipid, which is commercially available from Invitrogene and Molecular Probes. There is a quenching […] and a Bodipy fluorescein (FL) group in the sn2 position. Upon cleavage with Lp-PLA2, the Bodipy FL group is liberated and then may result in an increase in fluorescence. Inhibitors of Lp-PLA2 therefore prevent this cleavage and no fluorescent increase is observed.
The PED6 assay was run as an unquenched 10 μL assay. The source plate containing the compounds to be tested was prepared by making 1:3 (by volume) serial dilution of the compounds within DMSO on 384-well microplate. Then, 0.01 μL of the compounds on compound source plate were transferred into 384 well Greiner 784076 (black) plates using ECHO liquid dispenser. 5 μL of recombinant human Lp-PLA2 enzyme (4 nM) rhLp-PLA2 in assay buffer of 50 mM HEPES, pH 7.4, 150 mM NaCl, 1 mM CHAPS) was added to each well of the plate. Plates were centrifuged for 10 sec at 500 rpm. After 30 minutes preincubation, 5 μL of substrate (4 μM PED6 [from 5 mM DMSO stock] in assay buffer of 50 mM HEPES, pH 7.4, 150 mM NaCl, 1 mM CHAPS) was added to 384 well Greiner 784076 (black) plates. Plates were centrifuged for 10 sec at 500 rpm. The plate was covered to protect it from light and incubated for 20 min at room temperature. The plates were read for fluorescence intensity at ex: 480/em: 540 using ViewLux microplate imager for Envision spectrofluroimeters. pIC50 data, curve and QC analysis was conducted by using XL fit module in Excel.

[2] = molecular target: T2, Lp-PLA2 in human plasma (Homo sapiens, UniProt Q13093); assay: (3a) Lp-PLA2 human plasma Thio-PAF assay; type: biochemical; conditions: (3a) Thio-PAF assay, pooled human plasma; Examples 1-265 and 413-430 were tested here; read-out: pIC50 in the Lp-PLA2 human plasma assay (converted)
T2 construct: from tissue; host or cells: pooled human plasma
T2 sequence (Q13093 22-441): T1 sequence (Q13093 22-441)
Outline: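 Endogenous Lp-PLA2 activity in frozen pooled human plasma measured as thiol release from 2-thio-PAF, detected by CPM fluorescence (ex 380/em 485). Compound preincubation 30 min; 2-min reaction in HEPES pH 7.4 buffer with NEM, stopped with 5% TFA, read 40 min later at room temperature; values as pIC50.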

Row | SMILES | IC50 [1] [nM] | IC50 [2] [nM]
1 | CN1c2cc(OCc3cccc(F)c3F)nc(=O)n2CC12CCCCC2 [Example 425, 7′4(2,3-difluorobenzyhoxy)-1-methyl-1H-spiro[cyclohexane-1,2′-imidazo[1,2-c]pyrimidin]-5′(3′H)-one] | ≤ 100 | ≤ 10000
2 | CN1c2cc(OCc3cccc(F)c3F)nc(=O)n2CC12CCCC2 [Example 426, 7′4(2,3-difluorobenzyhoxy)-1-methyl-1H-spiro[cyclopentane-1,2′-imidazo[1,2-c]pyrimidin]-5′(3′H)-one] | ≤ 100 | ≤ 100
3 | CN1c2cc(OCc3ccc(F)cc3F)nc(=O)n2CC12CCCCC2 [Example 427, 7′4(2,4-difluorobenzyhoxy)-1-methyl-1H-spiro[cyclohexane-1,2′-imidazo[1,2-c]pyrimidin]-5′(3′H)-one] | ≤ 100 | ≤ 10000
4 | CN1c2cc(OCc3cc(F)c(F)cc3F)nc(=O)n2CC12CCCCC2 [Example 428, 1-methyl-7′-((2,4,5-trifluorobenzyl)oxy)-1′H-spiro[cyclohexane-1,2′-imidazo[1,2-c]pyrimidin]-5′(3′H)-one] | ≤ 100 | ≤ 10000
5 | O=c1nc(OCc2ccc(F)cc2)cc2n1CC1CCCCN21 (stereo not drawn) [Example E1, 3-((4-Fluorobenzyl)oxy)-6,7,8,9,9a,10-hexahydro-1H-pyrido[1,2′:3,4]imidazo[1,2-c] pyrimidin-1-one trifluoroacetate salt] | ≤ 100 | ≤ 10000
6 | O=c1nc(OCc2cc(F)cc(F)c2)cc2n1CC1CCCCN21 (stereo not drawn) [Example E3, 3-((3,5-Difluorobenzyl)oxy)-6,7,8,9,9a,10-hexahydro-1H-pyrido[1′,2′:3,4]imidazo-[1,2-c] pyrimidin-1-one] | ≤ 100 | ≤ 10000
7 | N#Cc1cccc(COc2cc3n(c(=O)n2)CC2CCCCN32)c1 (stereo not drawn) [Example E6, 3-(((1-Oxo-6,7,8,9,9a,10-hexahydro-1H-pyrido[1′,2′:3,4]imidazo[1,2-c]pyrimidin-3-yl)oxy)methyl)benzonitrile] | ≤ 100 | ≤ 10000
8 | N#Cc1cc(Oc2ccc(COc3cc4n(c(=O)n3)CC3CCCCN43)cc2F)ccc1Cl (stereo not drawn) [Example E11, 2-Chloro-5-(2-fluoro-4-(((1-oxo-6,7,8,9,9a,10-hexahydro-1H-pyrido[1′,2′:3,4]imidazo[1,2-c]pyrimidin-3-yl)oxy)methyl)phenoxy)benzonitrile] | ≤ 1 | ≤ 100
9 | N#Cc1cc(COc2cc3n(c(=O)n2)CC2CCCCN32)ccc1Oc1cccc(C(F)(F)F)c1 (stereo not drawn) [Example E12, 5-(((1-Oxo-6,7,8,9,9a,10-hexahydro-1H-pyrido[1′,2′:3,4]imidazo[1,2-c]pyrimidin-3-yl)oxy)methyl)-2-(3-(trifluoromethyl)phenoxy)benzonitrile] | ≤ 1 | ≤ 100
10 | Cc1cc(COc2cc3n(c(=O)n2)CC2CCCCN32)cc(F)c1F (stereo not drawn) [Example E14, 3-((3,4-Difluoro-5-methylbenzyl)oxy)-6,7,8,9,9a,10-hexahydro-1H pyrido[1′,2′:3,4]imidazo-[1,2-c]pyrimidin-1-one] | ≤ 100 | ≤ 10000
11 | O=c1nc(OCc2cc(F)c(F)c(Cl)c2)cc2n1CC1CCCCN21 (stereo not drawn) [Example E16, 3-((3-Chloro-4,5-difluorobenzyl)oxy)-6,7,8,9,9a,10-hexahydro-1H-pyrido[1′,2′:3,4] imidazo[1,2-c]pyrimidin-1-one] | ≤ 100 | ≤ 10000
12 | O=c1nc(OCc2ccc(Oc3ccnc(C(F)(F)F)c3)c(F)c2)cc2n1CC1CCCCN21 (stereo not drawn) [Example E17, 3-((3-Fluoro-4-((2-(trifluoromethyl)pyridin-4-yl)oxy)benzyl)oxy)-6,7,8,9,9a,10-hexahydro-1H-pyrido[1′,2′:3,4]imidazo[1,2-c]pyrimidin-1-one] | ≤ 1 | ≤ 100
13 | N#Cc1cc(COc2cc3n(c(=O)n2)CC2CCCCN32)ccc1Oc1ccc(F)c(F)c1 (stereo not drawn) [Example E19, 2-(3,4-Difluorophenoxy)-5-(((1-oxo-6,7,8,9,9a,10-hexahydro-1H-pyrido[1′,2′:3,4]imidazo-[1,2-c]pyrimidin-3-yl)oxy)methyl)benzonitrile] | ≤ 1 | ≤ 100
14 | O=c1nc(OCc2cc(F)c(Oc3cncc(C(F)(F)F)c3)c(F)c2)cc2n1CC1CCCCN21 (stereo not drawn) [Example E21, 3-((3,5-Difluoro-4-((5-(trifluoromethyl)pyridin-3-yl)oxy)benzyl)oxy)-6,7,8,9,9a,10-hexahydro-1H-pyrido[1′,2′:3,4]imidazo[1,2-c]pyrimidin-1-one] | ≤ 1 | ≤ 100
15 | O=c1nc(OCc2ccc(Oc3ccc(C(F)(F)F)nc3)c(F)c2)cc2n1CC1CCCCN21 (stereo not drawn) [Example E22, 3-((3-Fluoro-4-((6-(trifluoromethyl)pyridin-3-yl)oxy)benzyl)oxy)-6,7,8,9,9a,10-hexahydro-1H-pyrido[1′,2′:3,4]imidazo[1,2-c]pyrimidin-1-one] | ≤ 1 | ≤ 10000

Further lines, results first:

Row | IC50 [1] [nM] | IC50 [2] [nM] | SMILES
16 | ≤ 100 | ≤ 100 | CN1c2cc(OCc3cc(F)c(F)c(F)c3)nc(=O)n2CC12CCC2 [Example 423, 1′-methyl-7′-((3,4,5-trifluorobenzyl)oxy)-1′H-spiro[cyclobutane-1,2′-imidazo[1,2-c]pyrimidin]-5′(3′H)-one]
17 | ≤ 100 | ≤ 10000 | CN1c2cc(OCc3cc(F)c(F)cc3F)nc(=O)n2CC12CCC2 [Example 429, 1-methyl-7′-((2,4,5-trifluorobenzyl)oxy)-1′H-spiro[cyclobutane-1,2′-imidazo[1,2-c]pyrimidin]-5′(3′H)-one]
18 | ≤ 100 | ≤ 100 | O=c1nc(OCc2cc(F)c(F)c(F)c2)cc2n1CC1CCCCN21 (stereo not drawn) [Example E2, 3-((3,4,5-Trifluorobenzyl)oxy)-6,7,8,9,9a,10-hexahydro-1H-pyrido[1′,2′:3,4]imidazo[1,2-c] pyrimidin-1-one]
19 | ≤ 100 | ≤ 100 | O=c1nc(OCc2ccc(F)c(F)c2)cc2n1CC1CCCCN21 (stereo not drawn) [Example E5, 3-((3,4-Difluorobenzyl)oxy)-6,7,8,9,9a,10-hexahydro-1H-pyrido[1′,2′:3,4]imidazo[1,2-c] pyrimidin-1-one]
20 | ≤ 100 | ≤ 10000 | O=c1nc(OCc2ccc(F)cc2F)cc2n1CC1CCCCN21 (stereo not drawn) [Example E8, 3-((2,4-Difluorobenzyl)oxy)-6,7,8,9,9a,10-hexahydro-1H-pyrido[1′,2′:3,4]imidazo[1,2-c] pyrimidin-1-one]
21 | ≤ 1 | ≤ 100 | N#Cc1cc(COc2cc3n(c(=O)n2)CC2CCCCN32)ccc1Oc1cncc(C(F)(F)F)c1 (stereo not drawn) [Example E10, 5-(((1-Oxo-6,7,8,9,9a,10-hexahydro-1H-pyrido[1′,2′:3,4]imidazo[1,2-c]pyrimidin-3-yl)oxy)methyl)-2-((5-(trifluoromethyl)pyridin-3-yl)oxy)benzonitrile]
22 | ≤ 100 | ≤ 10000 | N#Cc1cc(F)cc(COc2cc3n(c(=O)n2)CC2CCCCN32)c1 (stereo not drawn) [Example E15, 3-Fluoro-5-(((1-oxo-6,7,8,9,9a,10-hexahydro-1H-pyrido[1′,2′:3,4]imidazo[1,2-c]pyrimidin-3-yl)oxy)methyl)benzonitrile]
23 | ≤ 100 | ≤ 10000 | O=c1nc(OCc2ccc(Oc3ccc(F)c(F)c3)c(F)c2)cc2n1CC1CCCCN21 (stereo not drawn) [Example E18, 3-((4-(3,4-Difluorophenoxy)-3-fluorobenzyl)oxy)-6,7,8,9,9a,10-hexahydro-1H-pyrido[1′,2′:3,4]imidazo[1,2-c]pyrimidin-1-one]
24 | ≤ 1 | ≤ 100 | N#Cc1ccc(Oc2ccc(COc3cc4n(c(=O)n3)CC3CCCCN43)cc2C#N)cc1Cl (stereo not drawn) [Example E20, 2-Chloro-4-(2-cyano-4-(((1-oxo-6,7,8,9,9a,10-hexahydro-1H-pyrido[1′,2′:3,4]imidazo[1,2-c]pyrimidin-3-yl)oxy)methyl)phenoxy)benzonitrile]
